Where two headings read alike, the source gives them in different places.
How the values were obtained:
[1] = Procedure: FIGS. 30-32 illustrate different transdermal membrane materials being tested with different solvents and solvent compositions. Solutions of water and different alcohols, including isopropanol, ethanol, and methanol were tested. The water to alcohol content was varied between 0/100 and 100/0 (by v/v) and tested with different membrane materials. For the tests 1.6 mL of solution was injected into the area between the transdermal membrane and the vapor permeable membrane. […] The membranes were observed approximately 90 seconds after providing the solvent solution to the space between the transdermal membrane and the vapor permeable membrane. […] Three different transdermal membrane materials were tested including Celgard® 2400 (FIG. 30), Celgard® 2500 (FIG. 31), and Celgard® 3501 (FIG. 32). Celgard® 2400 has an average pore diameter of about 0.041 μm and a porosity of 41%. Celgard® 2500 has an average pore diameter of about 0.064 μm and a porosity of 55%. Celgard® 3501 has an average pore diameter of about 0.064 μm and a porosity of 55%.
[2] = Wetting and permeation of solvent solutions across the transdermal membrane (FIG. 31); format: physicochemical; conditions: Celgard® 2500; 1.6 mL of solution injected between transdermal membrane and vapor permeable membrane; observed approximately 90 seconds after; v/v

Row | SMILES | permeation of the solvent solution across the membrane [1] | permeation of the solvent solution across the membrane [2]
1 | CO [100% methanol, methanol] | Some permeation | Some permeation
2 | O [100% water, water] | no permeation | –

From patent US12011560B2, “Drug delivery methods and systems” (Morningside Venture Investments Limited, priority 2015, dated 2024)
